According to ChEMBL document CHEMBL4842341, “Discovery of IACS-9779 and IACS-70465 as Potent Inhibitors Targeting Indoleamine 2,3-Dioxygenase 1 (IDO1) Apoenzyme” (J Med Chem, 2021):
Blank lines part the entries; values can stand above or below the compound they belong to.

Tests used:
in vitro [1] = settings: human, liver microsomes
in vitro [2] = settings: rat, liver microsomes
in vivo [3] = settings: NSG, mouse, tumor, po, 125 mg/kg
in vivo [4] = settings: NSG, mouse, plasma, po, 125 mg/kg
[5] = Apparent permeability across basolateral side to apical side in MDCK cells; format: ADME, cell-based, Canis lupus familiaris; settings: dog
[6] = Apparent permeability across apical side to basolateral side in MDCK-MDR1 cells; format: ADME, cell-based, Canis lupus familiaris; settings: dog
[7] = Apparent permeability across apical side to basolateral side in wild type MDCK cells; format: ADME, cell-based, Canis lupus familiaris; settings: dog
[8] = Apparent permeability across basolateral side to apical side in MDCK-MDR1 cells; format: ADME, cell-based, Canis lupus familiaris; settings: dog
in vivo [9] = settings: CD-1, mouse, iv, 0.3 mg/kg
[10] = Drug concentration in tumor of NSG mouse xenografted with human SKOV3 cells at 125 mg/kg, po BID measured after 12 hrs by LC-MS analysis; format: ADME, organism-based, Neoplasm, SK-OV-3; settings: read-out: Drug uptake
[11] = Drug concentration in plasma of NSG mouse xenografted with human SKOV3 cells at 125 mg/kg, po BID measured after 12 hrs by LC-MS analysis; format: ADME, organism-based, SK-OV-3
[12] = AUC in rat plasma at 250 mg/kg, po QD administered for 7 days; format: ADME, organism-based; set-up: dose 250 mg/kg, time 7 day
in vivo [13] = settings: CD-1, mouse, po, 10 mg/kg
in vivo [14] = settings: CD-1, mouse, iv, 0.3 mg/kg; remark: listed apart in the source
in vivo [15] = settings: CD-1, mouse, po, 10 mg/kg; remark: listed apart in the source
in vivo [16] = settings: CD-1, mouse, iv, 0.3 mg/kg; remark: listed apart in the source
in vivo [17] = settings: CD-1, mouse, iv, 0.3 mg/kg; remark: listed apart in the source
[18] = Drug concentration in plasma of NSG mouse xenografted with human SKOV3 cells at 3 mg/kg, po QD measured at 24 hrs post dose; format: ADME, organism-based, SK-OV-3
[19] = Drug concentration in tumor of NSG mouse xenografted with human SKOV3 cells at 3 mg/kg, po QD measured at 24 hrs post dose; format: ADME, organism-based, Neoplasm, SK-OV-3; settings: read-out: Drug uptake
in vivo [20] = settings: CD1, mouse, po, 10 mg/kg
in vivo [21] = settings: CD1, mouse, po, 10 mg/kg; remark: listed apart in the source
in vivo [22] = settings: CD1, mouse, iv, 0.3 mg/kg
in vivo [23] = settings: CD1, mouse, iv, 0.3 mg/kg; remark: listed apart in the source
in vivo [24] = settings: CD1, mouse, iv, 0.3 mg/kg; remark: listed apart in the source
in vivo [25] = settings: CD1, mouse, iv, 0.3 mg/kg; remark: listed apart in the source

Compound: CC(C(=O)Nc1ccc(Cl)cc1)N1CC(COc2ccnc3ccccc23)C1 (stereo unspecified)
CLint scaled at 0.75 h, 1 µM (in vitro [2]): 526 mL/min/kg
CLint scaled at 0.75 h, 1 µM (in vitro [1]): 227 mL/min/kg

Compound: Fc1cc2ncn([C@H]3C[C@@H]4[C@@H](CNC(c5ccc(Cl)cc5)C(F)(F)F)[C@@H]4C3)c2cc1F (stereo partly specified)
CLint scaled at 0.75 h, 1 µM (in vitro [1]): 100 mL/min/kg

Compound: CC[C@@H](NC(=O)c1ccc(Cl)cc1)[C@H]1[C@@H]2C[C@@H](n3c(C)nc4ccc(F)cc43)C[C@@H]21
concentration at 120 h (in vivo [3]): 100 nM
concentration at 120 h (in vivo [4]): 10 nM

Compound: CCC(NC(=O)c1ccc(Cl)cc1)[C@H]1[C@@H]2C[C@@H](NC(=O)c3cncc(F)c3)C[C@@H]21 (stereo partly specified)
CLint scaled at 0.75 h, 1 µM (in vitro [1]): 13 mL/min/kg

Compound: C[C@H](C(=O)Nc1ccc(Cl)cc1)[C@H]1CC[C@@H](c2ccnc3ccc(F)cc32)CC1
clearance at 24 h (in vivo [9]): 33.3 mL/min/kg
concentration at 12 h [10]: 610 nM
concentration at 12 h [11]: 60 nM
AUC at 168 h [12]: 95 µM·h
concentration at 120 h (in vivo [3]): 900 nM
bioavailability at 24 h (in vivo [13]): 39%
AUC(0-inf) at 24 h (in vivo [14]): 0.37 µM·h
concentration at 120 h (in vivo [4]): 20 nM
Cmax at 24 h (in vivo [15]): 4100 nM
CLint scaled at 0.75 h, 1 µM (in vitro [1]): 28 mL/min/kg
Vd at 24 h (in vivo [16]): 4.5 L/kg
half-life at 24 h (in vivo [17]): 1.57 h

Compound: CCC(c1nc2cc(Cl)ccc2[nH]1)[C@H]1[C@@H]2C[C@@H](c3ccnc4ccc(F)cc34)C[C@@H]21 (stereo partly specified)
concentration at 24 h [18]: 1900 nM
concentration at 24 h [19]: 500 nM
CLint scaled at 0.75 h, 1 µM (in vitro [1]): 17 mL/min/kg

Compound: CCC(NC(=O)c1ccc(Cl)cc1)[C@H]1[C@@H]2C[C@@H](n3cnc4cc(F)cnc43)C[C@@H]21 (stereo partly specified)
CLint scaled at 0.75 h, 1 µM (in vitro [1]): 0.46 mL/min/kg

Compound: O=C(C[C@H]1CC[C@@H](Oc2ccnc3ccccc23)CC1)Nc1ccc(Cl)cc1
CLint scaled at 0.75 h, 1 µM (in vitro [2]): 455 mL/min/kg
CLint scaled at 0.75 h, 1 µM (in vitro [1]): 44 mL/min/kg

Compound: CCC(NC(=O)c1ccc(Cl)cc1)[C@H]1[C@@H]2C[C@@H](n3cnc(C4CC4)n3)C[C@@H]21 (stereo partly specified)
CLint scaled at 0.75 h, 1 µM (in vitro [1]): 2 mL/min/kg

Compound: O=C1CC(c2c[nH]c3ccc(F)cc23)C(=O)N1 (stereo unspecified) [PF-06840003]
CLint scaled at 0.75 h, 1 µM (in vitro [2]): 7.2 mL/min/kg
CLint scaled at 0.75 h, 1 µM (in vitro [1]): 2.9 mL/min/kg

Second part, the compound after the results:

CLint scaled at 0.75 h, 1 µM (in vitro [1]): 0.7 mL/min/kg
Compound: CCC(NC(=O)c1ccc(Cl)cc1)[C@H]1[C@@H]2C[C@@H](n3cnc4cccc(F)c4c3=O)C[C@@H]21 (stereo partly specified)

CLint scaled at 0.75 h, 1 µM (in vitro [1]): 11.8 mL/min/kg
Compound: CCC(NC(=O)c1ccc(Cl)cc1)[C@H]1[C@@H]2C[C@@H](n3cnc4ccc(F)cc43)C[C@@H]21 (stereo partly specified)

CLint scaled at 0.75 h, 1 µM (in vitro [1]): 38 mL/min/kg
Compound: O=C(NC[C@@H]1[C@H]2C[C@@H](Oc3ccnc4ccc(F)cc34)C[C@@H]12)c1ccc(Cl)cc1

CLint scaled at 0.75 h, 1 µM (in vitro [2]): 956 mL/min/kg
Papp B→A [5]: 5.61 ×10⁻⁶ cm/s
Papp A→B [6]: 3.7 ×10⁻⁶ cm/s
Papp A→B [7]: 5.53 ×10⁻⁶ cm/s
Papp B→A [8]: 2.07 ×10⁻⁶ cm/s
CLint scaled at 0.75 h, 1 µM (in vitro [1]): 316 mL/min/kg
Compound: CCC(NC(=O)c1ccc(Cl)cc1)[C@H]1[C@@H]2C[C@H](Oc3ccnc4ccccc34)C[C@@H]21 (stereo partly specified)

CLint scaled at 0.75 h, 1 µM (in vitro [1]): 14 mL/min/kg
Compound: CCC(NC(=O)c1ccc(Cl)cc1)[C@@H]1[C@@H]2C[C@H](Oc3ccnc4cccnc34)C[C@@H]21 (stereo partly specified)

CLint scaled at 0.75 h, 1 µM (in vitro [1]): 490 mL/min/kg
Compound: CCC(NC(=O)c1ccc(Cl)cc1)[C@@H]1[C@@H]2C[C@@H](Oc3ccnc4ccc(F)cc34)C[C@@H]21 (stereo partly specified)

CLint scaled at 0.75 h, 1 µM (in vitro [1]): 32 mL/min/kg
Compound: CCC(NC(=O)c1ccc(Cl)cc1)[C@@H]1[C@@H]2C[C@H](Oc3ccnc4cc(F)ccc34)C[C@@H]21 (stereo partly specified)

CLint scaled at 0.75 h, 1 µM (in vitro [1]): 8.8 mL/min/kg
Compound: CCC(NC(=O)c1ccc(Cl)cc1)[C@H]1[C@@H]2C[C@@H](n3cnc4ccncc43)C[C@@H]21 (stereo partly specified)

bioavailability (in vivo [20]): 146%
Cmax (in vivo [21]): 51000 nM
half-life (in vivo [22]): 15 h
AUC(0-inf) (in vivo [23]): 51 µM·h
Vd (in vivo [24]): 0.27 L/kg
clearance (in vivo [25]): 0.233 mL/min/kg
Compound: CCC(NC(=O)c1ccc(Cl)cc1)[C@@H]1[C@@H]2C[C@H](Oc3ccnc4ccc(F)cc34)C[C@@H]21 (stereo partly specified)
